We go through one compound from patent US20150157584A1, “INHIBITORS OF HIPPO-YAP SIGNALING PATHWAY” (The Regents of the University of California, priority 2012, published 2015).

One series concerns YAP mRNA. As to the kind of experiment: YAP mRNA level by RT-PCR. Format: cell-based, human. The settings on record: BOCs 293 cells; 3 μM; 12 and 24 hr.
The test system of a further series is M14. Put plainly: transwell cell migration assay, M14. Format: cell-based, human. The settings on record: 1, 2 and 3 μM C108. The procedure: Cell migration assay was performed using BD Falcon™ Cell culture inserts for 24-well plates with 22.0 μm pores filter, and the filter was pre-coated with […] Fibronectin. […] After 24 h, cells were fixed using 4% paraformaldehyde and stained using 0.05% crystal violet. Cells in upper chamber were carefully removed, and cells migrated through the filter were assessed by photography. For quantification, crystal violet was extracted and the absorbance at 560 nm was measured.

The subject of a further series is M14 Melanoma. As to the kind of experiment: M14 melanoma cell proliferation (growth curve). Format: cell-based, human.
In the next series the test system is SK-Mel-28 melanoma. As to the kind of experiment: cell migration assay, SK-Mel-28. Format: cell-based, human. The protocol: (§1) Cell migration assay was performed using BD Falcon™ Cell culture inserts for 24-well plates with 22.0 μm pores filter, and the filter was pre-coated with […] Fibronectin. Cancer cells were serum-starved for 24 h and then seeded into the upper chamber of the insert in serum-free media, and lower chamber was filled with media containing 20% FBS with or without 2 μM C108. After 24 h, cells were fixed using 4% paraformaldehyde and stained using 0.05% crystal violet. Cells in upper chamber were carefully removed, and cells migrated through the filter were assessed by photography. For quantification, crystal violet was extracted and the absorbance at 560 nm was measured.

Another series has as its system EKVX adenocarcinoma. Put plainly: cell migration assay, EKVX. Format: cell-based, human. The protocol:
as §1

In a further series the test system is M14 melanoma xenograft. As to the kind of experiment: M14 melanoma xenograft in nude mice.
Series [1] relates to YAP. Format: cell-based, human.
In series [2] the test system is YAP. Put plainly: YAP ubiquitination (YAP immunoprecipitation, ubiquitin Western blot). Format: cell-based, human. The settings on record: SF268 glioblastoma cells. A general note: A western blot detects proteins with antibodies after separation by electrophoresis.
The next series has as its system M14 cells. Put plainly: wound healing assay. Format: cell-based, human. The settings on record: M14 melanoma; 24 hr scratch assay. The protocol:
Control and […] treated cells were plated on fibronectin ([…]) coated 6 well plates in complete growth media. After overnight culture, wounds were made by manual scraping of the cell monolayer with a pipet tip. The dishes were washed, replenished with media in the presence or absence of […], and photographed under phase contrast microscope. They were then placed in the tissue culture incubator, and the matched wound regions were photographed every 6 hrs. Migration rate is quantified by traveling distance of leading cellular edge normalized to initial gap distance.

The subject of series [3] is EKVX adenocarcinoma xenograft. Put plainly: EKVX adenocarcinoma xenograft in nude mice. Format: in vivo, mouse. Particulars: 100 mg/kg daily via tail-vein injection, three weeks.
Method: (§2) Cells grown to 90% confluence were harvested by trypsinization, washed in phosphate-buffered saline (PBS), and resuspended in PBS supplemented with 50% matrigel (BD Biosciences). Cells in 200 μL per injection site were administered. Nude mice (Nu-foxn1nu, Charles Rivers Laboratories) were injected on both flanks of the dorsolateral sites subcutaneously. C108 was formulated in 10% DMSO and 40% propylene glycol then administered at a dose of 100 mg/kg daily via tail-vein injection. Control mice received vehicle alone. The average tumor diameter (two perpendicular axes of the tumor were measured) was recorded. The data are expressed in tumor volume estimated by ([width]^2×length/2). Paired, two-tailed Student's t-test was performed to access the statistical significance.
In order to investigate the physiological impact of C108 on implanted tumor cell growth, in vivo xenograft models using M14 melanoma and EKVX adenocarcinoma in immune compromised mice were examined. Cancer cells mixed with 50% matrigel were injected subcutaneously, palpable tumors with approximately 5 mm in diameter across all injection sites were observed within 3 weeks. […] During the treatment period, tumor growth was monitored and final tumor weights were measured.

Read-outs that look alike come from different tables or passages of the source.

Method for M14 melanoma xenograft: as §2
In order to investigate the physiological impact of C108 on implanted tumor cell growth, in vivo xenograft models using M14 melanoma and EKVX adenocarcinoma in immune compromised mice were examined. Cancer cells mixed with 50% matrigel were injected subcutaneously, palpable tumors with approximately 5 mm in diameter across all injection sites were observed within 3 weeks. At that point, control group (6 mice) was tail-vein injected with the solvent consist of 10% DMSO and 40% propylene glycol while the treatment group (6 mice) received daily injection of C108 for three additional weeks. During the treatment period, tumor growth was monitored and final tumor weights were measured.

For the compound `O=S(=O)(c1ccc2c(c1)C(=NO)c1cc(S(=O)(=O)N3CCCCC3)ccc1-2)N1CCCCC1` [C108, 2,7-bis(piperidin-1-yl-sulfonyl)-9H-fluoren-9-one oxime], in the series with YAP mRNA, the “YAP mRNA levels” value was “no noticeable changes”. The “migration of M14” value in the series with M14 was “suppressed”. Further, in the series on M14 Melanoma, the “M14 Melanoma cell proliferation” value was “inhibitory effect”. For the same compound, the “migration of SK-Mel-28 melanoma” value in the series on SK-Mel-28 melanoma was “suppressed”. Further, the “migration of EKVX adenocarcinoma” value in the series with EKVX adenocarcinoma is “suppressed”. For the same compound, the total body weight entry in the series on M14 melanoma xenograft (100 mg/kg daily via tail-vein injection, three weeks) is listed as “not affected”. The “growth of M14 xenograft tumors” value in the series with M14 melanoma xenograft (100 mg/kg daily via tail-vein injection, three weeks, nude mice) is given as “significantly inhibited”. In addition, in the series with M14 melanoma xenograft (M14 tumors from treated mice), the “apoptotic marker cleaved PARP in tumors (Western blot)” value is “dramatic increase” and the “level of YAP in tumor tissues (Western blot)” value was “lower level”. In the series on M14 melanoma xenograft (melanoma xenografts), the “Hematoxylin and Eosin stain of tumor sections” value is “sparser and have lower nuclear to cytoplasimc ratio”. Also, the “YAP protein in the presence of cycloheximide” value in the series on YAP [1] (10 μM C108, 12 hrs) is listed as “rapidly diminished”. Moreover, the YAP protein levels result with YAP [1] (BOCS cells, 16 hours of treatment) is listed as “dramatic decrease”. Moreover, the “concentration at which endogenous YAP protein was significantly reduced” value in the series on YAP [1] (BOCs 293 cells, 12 and 24 hr of drug exposure) fell in the range of 2 to 3 µM. The YAP protein levels entry in the series with YAP [1] (SF268 glioma, M14 melanoma and SK-Mel-28 melanoma) is on record as “decreased”. Also, in the series with YAP [2], the “endogenous YAP ubiquitination” value is reported as “dramatically increased”. Moreover, the “cell migration in wound-healing assay” value in the series with M14 cells is “strongly inhibited”. Moreover, the “growth of EKVX xenograft tumors” value in series [3] is recorded as “significantly inhibited”.
